{"source": "paper PMC12339561", "about": "“Discovery of a selective dual-specificity tyrosine phosphorylation-regulated kinase 1B inhibitor with anti-adipogenic and anti-diabetic activities” (Frontiers in Pharmacology, 2025)", "biological_target": "T1, DYRK1B (dual-specificity tyrosine phosphorylation-regulated kinase 1B) (Homo sapiens, UniProt Q9Y463)", "T1 construct": "Human DYRK1B recombinant protein (#PV4649)", "T1 sequence (Q9Y463 whole entry)": "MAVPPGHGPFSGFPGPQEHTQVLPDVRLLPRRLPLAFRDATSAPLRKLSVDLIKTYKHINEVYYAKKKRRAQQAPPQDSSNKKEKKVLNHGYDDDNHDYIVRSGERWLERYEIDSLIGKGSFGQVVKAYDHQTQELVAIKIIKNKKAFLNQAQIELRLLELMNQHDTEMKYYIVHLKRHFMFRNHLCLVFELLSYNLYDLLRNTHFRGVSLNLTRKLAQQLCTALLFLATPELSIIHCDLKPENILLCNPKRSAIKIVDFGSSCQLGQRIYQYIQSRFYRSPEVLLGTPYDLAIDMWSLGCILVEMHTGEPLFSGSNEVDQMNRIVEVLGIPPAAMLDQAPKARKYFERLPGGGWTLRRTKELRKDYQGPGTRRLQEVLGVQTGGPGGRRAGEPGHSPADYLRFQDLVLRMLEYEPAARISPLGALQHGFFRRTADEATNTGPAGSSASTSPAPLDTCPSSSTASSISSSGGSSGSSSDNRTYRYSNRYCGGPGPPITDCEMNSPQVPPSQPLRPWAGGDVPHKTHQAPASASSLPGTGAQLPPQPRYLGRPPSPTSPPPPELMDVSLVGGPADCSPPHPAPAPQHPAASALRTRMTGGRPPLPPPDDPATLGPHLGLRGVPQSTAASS", "experiment": "LanthaScreen Eu Kinase Binding Assay (TR-FRET displacement of kinase tracer […]), recombinant protein", "data": [{"compound": "COc1ccc(-c2n[nH]c3ncc(-c4ccc(NC(C)=O)cc4)cc23)cc1", "note": "[KS-40070, N-(4-(3-(4-methoxyphenyl)-1H-pyrazolo [3,4-b]pyridin-5-yl)phenyl)acetamide]", "values": [{"measurement": "IC50", "value": 0.018, "unit": "µM"}]}]}
